# Where a name gives a salt, the structure may show the parent alone.
# Legend:
# humans = details: in vivo; cited from earlier work
# rodents = details: in vivo; cited from earlier work
# rats = details: mediated through 5-HT2C or 5HT2B receptors; cited from earlier work
# CYP2D6 = details: cited from earlier work
# [1] = system: cytochrome P450 (CPY) 3A4; details: cited from earlier work
# [2] = nefazodone and metabolite pharmacokinetics in human volunteers: ER v. IR; details: plasma, po
# [3] = clinically effective doses of up to 450 mg three times a day; cited from earlier work
# [4] = cited from earlier work
# [5] = USP criteria; cited from earlier work
# [6] = system: serotonin 5-HT2 receptors; details: in vivo; cited from earlier work
# serotonin re-uptake = details: in vivo; cited from earlier work
# monoamine oxidase = details: cited from earlier work
# [7] = cited from earlier work; remark: listed apart in the source
# [8] = relative to tricyclic antidepressants; cited from earlier work
smiles,measurement,setting,value
"Clc1cccc(N2CCNCC2)c1 [mCPP, m-chlorophenylpiperazine]",effects in humans,humans,"increase anxiety in humans (and can cause panic attacks), may precipitate migraine attacks in those susceptible to such attacks, can disrupt sleep, be hypophagic in humans also and may have psychotogenic effects"
same,effects in rodents,rodents,"anxiogenic-like properties, causes hypoactivity, hypophagia, oral dyskinesia, penile erection and hyperthermia"
same,hypoglycemic effect,rats,dose-dependent hypoglycemic effect
same,metabolism by CYP2D6,CYP2D6,responsible for the metabolism of mCPP
"CCc1nn(CCCN2CCN(c3cccc(Cl)c3)CC2)c(=O)n1CCOc1ccccc1 [Nefazodone, 2-[3-[4-(3-chlorophenyl)-1-piperazinyl]-propyl-]5-ethyl-2,4-dihydro-4-(2-phenoxy-ethyl)-3H-1,2,4-triazol-3-one hydrochloride]",inhibition of CYP3A4,[1],inhibits cytochrome P450 (CPY) 3A4
same,metabolism by CYP3A4,[1],metabolized by
same,Tmax,[2]; 100 mg,2 h
same,Tmax,[2]; 200 mg,5 h
same,tolerability,[3],well-tolerated
same,first-pass metabolism,[4]; in vivo,significant first-pass metabolism
same,kinetics (dose proportionality),[4]; plasma concentrations v. dose,non-linear kinetics
same,solubility in water,[5],sparingly soluble
same,effect on serotonin 5-HT2 receptors,[6],blocks serotonin 5-HT2 receptors
same,serotonin re-uptake inhibition,serotonin re-uptake,reversibly inhibits serotonin re-uptake
same,monoamine oxidase inhibition,monoamine oxidase,does not inhibit monoamine oxidase
same,inhibition of CYP2D6,CYP2D6,weak inhibitor of CYP2D6
same,dissociation constant (pKa),[7],6.4
same,"anticholinergic, antihistamine, alpha-adrenergic and sedative activity",[8],"decreased anticholinergic, antihistamine, alpha-adrenergic and sedative activity"
O=c1[nH]n(CCCN2CCN(c3cccc(Cl)c3)CC2)c(=O)n1CCOc1ccccc1 [Dione],metabolism by CYP3A4,[1],responsible for the further metabolism
"CC(O)c1nn(CCCN2CCN(c3cccc(Cl)c3)CC2)c(=O)n1CCOc1ccccc1 (centres unmarked) [hydroxy-nef, hydroxynefazodone]",metabolism by CYP3A4,[1],responsible for the further metabolism

# Reference: US6143325A, “Nefazodone dosage form” (priority 1999, dated 2000)
